In the test the target is T1, Sortase A (SrtA) (Staphylococcus aureus, UniProt Q2FV99).
T1 construct: recombinant SrtA enzyme (BPS Bioscience)
Briefly: fluorescence cleavage assay of Abz-LPETG-K(Dnp)-NH2 with recombinant SrtA. It counts as biochemical.

T1 sequence (Q2FV99 whole entry): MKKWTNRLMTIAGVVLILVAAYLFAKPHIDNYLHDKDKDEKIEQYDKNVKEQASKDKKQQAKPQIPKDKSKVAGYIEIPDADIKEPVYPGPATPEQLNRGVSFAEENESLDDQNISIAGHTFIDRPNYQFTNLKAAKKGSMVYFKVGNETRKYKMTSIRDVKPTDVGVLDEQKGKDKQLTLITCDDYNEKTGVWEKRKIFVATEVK

In the case of `C=C(C)[C@H](CC=C(C)C)Cc1c(O)cc(OC)c(C(=O)/C=C/c2ccc(O)cc2O)c1O` [Kuraridin, (E)-1-[2,4-dihydroxy-6-methoxy-3-(5-methyl-2-prop-1-en-2-ylhex-4-enyl)phenyl]-3-(2,4-dihydroxyphenyl)prop-2-en-1-one], the “fluorescence cleavage assay of Abz-LPETG-K(Dnp)-NH2 with recombinant SrtA” value is recorded as “LogIC50 1.699 ± 0.055”.

The values are drawn from article PMC11940505, “Antivirulence Properties of Kuraridin Against Methicillin-Resistant Staphylococcus aureus (MRSA)” (Biomedicines, 2025).
